Laboratory results published in patent publication US20250235429A1, “TREATMENT OF DISEASES VIA ADMINISTRATION OF BUNTANETAP AND AN ANTIDIABETIC AGENT” (ANNOVIS BIO, INC., priority 2024, published 2025).

What was measured:
[1] = in vivo; cited from earlier work
[2] = system: hippocampal slices APP/PS1 transgenic mice; assay: Electrophysiological study: long-term potentiation (LTP) in hippocampal slices; type: in vivo
Description: (§1) Animals: Heterozygous double transgenic mice expressing both human APP (K670N:M671L) and human PS1 (M146L) (line 6.2) and their wild-type non-transgenic littermates, both males and females, were used for these experiments. They were obtained by a breeding colony maintained at the animal facility of Columbia University. They were genotyped through PCR on tail samples. Animals were injected i.p. from the age of […] for 1 month prior to starting behavioral assessment which lasted for 2 weeks during which treatment continued. Behavioral assessment examined spatial and associative memory. Finally, mice were sacrificed for electrophysiological assessment of synaptic function.
(§2) Mice were coded to blind investigators with respect to genotype and treatment. Results were expressed with Standard Error of the Mean (SEM). Level of significance was set for p<0.05. Results were analyzed by ANOVA analysis with post-hoc correction with the combination or genotype as main effect. Experiments were designed in a balanced fashion, and mice were trained and tested at each of the different conditions in 3 or 4 separate experiments.
Mice were i.p. injected with the drug from the age of 8 weeks prior to plaque appearance until euthanasia for collecting slices at the age of 14-16 weeks. The treatment with Buntanetap was daily, whereas the treatment with dulaglutide was twice a week.
Electrophysiological analysis was performed on 400 μm hippocampal slices, cut with a tissue chopper and maintained in an interface chamber at 29° C. for 90 min prior to recording. Briefly, CA1 fEPSPs were recorded by placing both the stimulating and the recording electrodes in CA1 stratum radiatum. Basal synaptic transmission was assayed, either by plotting the stimulus voltages against slopes of fEPSP, or by plotting the peak amplitude of the fiber volley against the slope of the fEPSP. For LTP experiments, a 15 min baseline was recorded every min at an intensity that evokes a response ˜35% of the maximum evoked response. LTP was induced using θ-burst stimulation (4 pulses at 100 Hz, with the bursts repeated at 5 Hz and each tetanus including 3 ten-burst trains separated by 15 see). Data was subjected to statistical analyses to determine the effects of combination on inhibiting synaptic dysfunction.

[3] = system: APP/PS1 transgenic mice; assay: 2-day radial arm water maze (RAWM), spatial memory; type: in vivo
Description: as §1, §2
Mice were i.p. injected with the drug from the age of 8 weeks prior to plaque appearance until behavioral assessment that started at 12 weeks of age and lasted for 2 weeks.
Spatial memory was studied with the 2-day radial arm water maze (RAWM) test. The task is a hybrid of the Morris Water Maze (MWM) and the radial arm land maze. The motivation for the animals is immersion in water. The mouse needs to swim in 6 alleys (arms) radiating from a central area until it finds a hidden (submerged) platform at the end of one of the arms, based on visual cues placed in the room. In the old RAWM version of the task, the goal arm varies from day to day, requiring 21 days of training in wild-type mice to reach the learning criterion. In the new version of the task, the goal arm is kept constant for all trials, with a different start arm on successive trials, such that the learning criterion will be reached in 2 days. The first day of the protocol was a training day. Mice were trained to identify the platform location by alternating between a visible and a hidden platform in a goal arm. The final 3 trials on day 1 and all 15 trials on day 2 used a hidden escape platform to force mice to use spatial cues to identify the location of the goal arm. To avoid learning limitations imposed by exhausting practice and to avoid fatigue that may result from consecutive trials, spaced practice training was established by running the mice in cohorts of 4 and alternating different cohorts through the 15 training trials over 3 hours testing periods each day. On day 1, a visible platform was laced in a goal location. Mouse 1 of cohort 1 was gently placed in the pool near the perimeter of the wall of the first start arm (specified on a score sheet) and facing the center of the pool. The number of incorrect arm entries (entries in arms with no platform) was counted. If the animal enters the incorrect arm it was gently pulled back to the start arm. Each trial lasted up to 1 min. Failure to select an arm after 15 sec was counted as an error and the mouse was returned to the start arm. After 1 min, if the platform had not been located, the mouse was guided gently through the water by placing a hand behind it to direct it towards the platform. The mouse rested on the platform for 15 sec. After completing the trial, the mouse was removed from the pool, gently towel dried and placed back into its cage under a heat lamp. The goal platform location was different for each mouse. […] After each mouse from cohort 1 completed six alternating trials between visible and hidden platforms, the mice were left to rest under a heating source, and mice from the second cohort were tested in the same way.

[4] = system: APP/PS1 transgenic mice; assay: Contextual fear conditioning (FC), associative memory; type: in vivo; settings: Buntanetap 1 mg/Kg and/or dulaglutide 0.1 mg/Kg
Description: as §1
Mice were coded to blind investigators with respect to genotype and treatment. Results were expressed with Standard Error of the Mean (SEM). […] Results were analyzed by ANOVA analysis with post-hoc correction with the combination or genotype as main effect. […]
The combination effect on associative memory was assessed through fear conditioning (FC). […] Freezing behavior, defined as the absence of movements except for that needed for breathing, was scored using Noldus software. Contextual fear learning, a type of memory for which hippocampal function is indispensable, was evaluated 24 hrs after training by measuring freezing responses for 5 min in the same chamber where the mice have been trained. […]

[5] = APP/PS1 mice, Buntanetap 1 mg/Kg and/or dulaglutide 0.1 mg/Kg

| Substance | onset [1] | peak concentration occurs after administration [1] | % Improvement (Residual Potential) ([2]; APP/PS1, dulaglutide 0.1 mg/kg) | Residual Potential (mean) ([2]; APP/PS1, dulaglutide 0.1 mg/kg i.p. twice a week) | % Improvement (Residual Potential) ([2]; APP/PS1, dulaglutide 0.3 mg/kg) | Residual Potential (mean) ([2]; APP/PS1, dulaglutide 0.3 mg/kg i.p. twice a week) | % Improvement (Residual Potential) ([2]; APP/PS1, dulaglutide 0.6 mg/kg) | Residual Potential (mean) ([2]; APP/PS1, dulaglutide 0.6 mg/kg i.p. twice a week) | impairment of synaptic plasticity measured through Long-term potentiation (LTP) [2, 5] | % Improvement (RAWM errors) ([3]; APP/PS1, dulaglutide 0.1 mg/kg) | Meran Number of Errors (RAWM) ([3]; APP/PS1, dulaglutide 0.1 mg/kg) | % Improvement (RAWM errors) ([3]; APP/PS1, dulaglutide 0.3 mg/kg) | Meran Number of Errors (RAWM) ([3]; APP/PS1, dulaglutide 0.3 mg/kg) | % Improvement (RAWM errors) ([3]; APP/PS1, dulaglutide 0.6 mg/kg) | Meran Number of Errors (RAWM) ([3]; APP/PS1, dulaglutide 0.6 mg/kg) | impairment of short-term spatial memory measured through the 2-day radial arm water maze (RAWM) [3, 5] | impairment of associative memory measured through contextual fear conditioning (FC) [4] |
| --- | --- | --- | --- | --- | --- | --- | --- | --- | --- | --- | --- | --- | --- | --- | --- | --- | --- |
| Insulin detemir | about 1 hours | 3 to 14 h |  |  |  |  |  |  |  |  |  |  |  |  |  |  |  |
| Insulin glulisine: insulin commercially available as Apidra® | 5 to 15 min |  |  |  |  |  |  |  |  |  |  |  |  |  |  |  |  |
| dulaglutide: GLP-1 agonist, commercially available as Trulicity® |  |  | 21.4% | 155.52 | 32.3% | 164.68 | 71.1% | 197.26 | did not ameliorate | 23.5% | 2.9 | 47.1% | 2.5 | 88.2% | 1.8 | did not ameliorate | did not ameliorate |
